What was measured:
[1] = tested on: gastric cancer cells including AGS, SNU216, and SNU638; test: L20 peptide binding to gastric cancer cells; type: cell-based; conditions: Figure 1D
[2] = tested on: CCD841 cells; test: FITC-labeled peptide immunofluorescence assay, control cells; type: cell-based, human; conditions: fluorescein-labeled peptide, 10 μM, 1 hour at RT, Figure 1B
[3] = tested on: five colon cancer cell lines; test: Flow cytometry; type: cell-based, human; conditions: FITC-L20 10 μM, 1 hour at RT, all colon cancer cells, Figure 1C
[4] = tested on: five colon cancer cells; test: FITC-labeled peptide immunofluorescence assay, colon cancer cells; type: cell-based, human; conditions: fluorescein-labeled peptide, 10 μM, 1 hour at RT, Figure 1B

ANLNLWTDYIRW [L20 peptide]
fluorescence in gastric cancer cell lines compared to the control cells [1]: did not show higher fluorescence | fluorescence on the control cell line [2]: negligible | FACS fluorescence compared to the control peptide [3]: right shift of fluorescence | fluorescence on colon cancer cells [4]: very intense fluorescence
